“Also recorded” adds a separate entry of the source.
What was measured:
[1] = in vitro DOX release by dialysis; type: physicochemical; conditions: free drug control
Method: In vitro drug release. The release of DOX from DOX-loaded PASA and FASA micelles at different pH was studied using a dialysis method. Briefly, 2 mL of PASA/DOX and FASA/DOX micelles containing 1 mg of DOX and 10 mg of polymer were placed in a dialysis bag (MWCO 3.5 kDa) and immersed into 40 mL of 0.1 M PBS solution containing 0.5% (w/v) Tween 80 at pH 5 and pH 7.4. The experiment was performed in an incubation shaker at 37° C. at 100 rpm. At selected time intervals, 10 μL solution in the dialysis bag and 1 mL medium outside the dialysis bag were withdrawn while same amount of fresh dialysis solution was added for replenishment. The concentration of DOX was examined by fluorescence spectrometry (excitation, 480 nm; emission, 510 to 620 nm). Free DOX was included as control.

KB cells [2] = assay: cellular uptake, fluorescence microscopy and flow cytometry; type: cell-based, human
Method: Cellular uptake study. KB, 4T1.2, CT26, MDA-MB-468, HCT116 tumor cells and M2 macrophages were seeded to 6-well plates (3×10^5/well), respectively. After overnight incubation, the culture medium was replaced by fresh medium containing free DOX, PASA/DOX and FASA/DOX micelles with or without 100 μM free folate, respectively, at an equivalent DOX concentration of 6 μg/mL (carrier/DOX ratio: 10/1 (w/w)). After incubation for 30 min at 37° C., cells were washed with cold PBS and fixed with PBS containing 4% (w/v) formaldehyde. Nuclei were then stained by DAPI for 5 min. Cells were washed with cold PBS and observed under fluorescence microscope (BZ-X710, Japan).
Cellular uptake of different DOX formulations was also quantified by flow cytometry. KB tumor cells seeded in 6-well plates (3×10^5/well) were treated with various DOX formulations as described above at a DOX concentration of 6 μg/mL. Following incubation at 37° C. for 30 min, cells were washed with cold PBS, fixed in PBS containing 4% (w/v) formaldehyde, and resuspended in 500 μL PBS for flow cytometry analysis with CyAn ADP Analyzer (Beckman Coulter, Inc.). Fluorescence was examined at an excitation wavelength of 480 nm and an emission wavelength of 570 nm. 2×10^4 events were collected for each sample.

KB cells [3] = assay: MTT cytotoxicity of DOX formulations, 30 min treatment then 48 h; type: cell-based, human; conditions: FASA up to 200 μg/mL
Method: In vitro cytotoxicity. Cytotoxicity assay was performed on different cancer cell lines (KB, 4T1.2, CT26, MDA-MB-468 and HCT116). Cells were seeded in 96-well plates at a density of 5×10^3 cells/well with 100 μL of complete culture medium (DMEM or RPMI 1640 with 10% FBS and 1% streptomycin/penicillin).
The cytotoxicity of PASA/DOX and FASA/DOX at a carrier/DOX ratio of 10/1 (w/w) were compared to free DOX and Doxil at various DOX concentrations. FASA control was added to cells at concentrations equivalent to the amounts of carrier in the corresponding DOX formulations. In order to confirm folate-mediated active targeting, free folate (100 μM) was added along with the FASA/DOX micelles. Cells were incubated for 30 min in drug-containing medium and then cultured for another 48 h in fresh medium prior to MTT assay.

4T1.2 tumor [4] = tested on: 4T1.2 tumor; parameters: species or system mice; conditions: mouse, in vivo, iv
Method: Tissue biodistribution. […] The mice were sacrificed and perfused at 24 h post injection. Tumors and major organs including heart, liver, spleen, lung and kidney were sectioned and observed under the fluorescence microscope (BZ-X710, Japan).

4T1.2 tumor [5] = assay: in vivo therapeutic study, syngeneic breast cancer model; parameters: species or system BALB/c mice; conditions: 4T1.2 model, treatments on day 0, 3, 6, i.v.
Text: In vivo therapeutic study. […] Female BALB/c mice (4-6 weeks) were s.c. inoculated with 4T1.2 or CT26 cells (5×10^5 cells per mouse). […] Tumor sizes were monitored every three days following the initiation of the treatment and calculated by the formula: (Length×Width^2)/2. Body weights were also followed as an indication of toxicity. After completion of the experiment, tumor and major organs were collected for hematoxylin and eosin (H&E) staining. Blood samples were collected for biochemical analysis of alanine transaminase (ALT) and aspartate aminotransferase (AST).

[6] = toxicity evaluation (body weight, AST/ALT, histology); type: in vivo, mice
Method: In vivo therapeutic study. In vivo antitumor efficacy of DOX-loaded PASA and FASA micelles was tested in syngeneic 4T1.2 mouse breast cancer model and CT26 mouse colon cancer model, respectively. Female BALB/c mice (4-6 weeks) were s.c. inoculated with 4T1.2 or CT26 cells (5×10^5 cells per mouse). When the tumor volume reached ~50 mm^3, mice were randomly divided into eight groups (n=5), and treated via tail vein injection with PBS, DOX, 5-ASA+DOX, Doxil, blank PASA micelles, blank FASA micelles, DOX-loaded PASA micelles or DOX-loaded FASA micelles, respectively once every three days for three times (polymer: 50 mg/kg, DOX: 5 mg/kg, 5-ASA: 20 mg/kg). Tumor sizes were monitored every three days following the initiation of the treatment and calculated by the formula: (Length×Width^2)/2. Body weights were also followed as an indication of toxicity. After completion of the experiment, tumor and major organs were collected for hematoxylin and eosin (H&E) staining. Blood samples were collected for biochemical analysis of alanine transaminase (ALT) and aspartate aminotransferase (AST).
Histopathological Analysis. Tumors and major organs including heart, liver, spleen, lung and kidney were excised and fixed in PBS containing 10% formaldehyde after completion of the in vivo therapy study, followed by embedment in paraffin. The paraffin embedded samples were sectioned into slices at 4 μm using an HM 325 Rotary Microtome. The tissue slices were then subjected to H&E staining for histopathological examination under a Zeiss Axiostar plus Microscope (PA, USA).
ALT and AST assessment. Mouse serum was obtained for blood biochemical assessment. ALT and AST were measured by ALT/SGPT or […] liqui-UV assay kit following manufacturer's protocols.

PGE2 = assay: inhibition of PGE2 production by 5-ASA; type: cell-based; conditions: 5-ASA concentration 1 mM; read-out: production of PGE2 inhibited
Method: (§1) Prostaglandin E2 level analysis. To analyze the levels of prostaglandin E2 (PGE2) production in different cell lines, the cell culture mediums were collected after overnight incubation. To test PGE2 in the tumor tissues, the harvested tumors were homogenized, and the supernatants were obtained after centrifugation. PGE2 in the supernatants was detected using Abcam Prostaglandin E2 ELISA Kit.

[7] = tested on: 4T1.2, CT26, MDA-MB-468 and HCT116 tumor cell lines; assay: MTT cytotoxicity of free 5-ASA, DOX and combination, 48 h; type: cell-based, murine, human; conditions: 5-ASA 0~1 mM, all four cell lines
Method: In vitro cytotoxicity. […] Cells were seeded in 96-well plates at a density of 5×10^3 cells/well with 100 μL of complete culture medium (DMEM or RPMI 1640 with 10% FBS and 1% streptomycin/penicillin). […] The absorbances of each well were measured at 590 nm and the cell viability was determined via the following formula: (ODtreated−ODblank)/(ODcontrol−ODblank)×100%.

[8] = tested on: PGE2 in CT26 tumor tissue; assay: PGE2 level in tumor tissue, ELISA; parameters: species or system BALB/c mice; conditions: mouse, in vivo
Method: as §1

endometrial cancer cells = conditions: cited from earlier work
[9] = tested on: esophageal squamous cell carcinoma; conditions: cited from earlier work

COc1cccc2c1C(=O)c1c(O)c3c(c(O)c1C2=O)C[C@@](O)(C(=O)CO)C[C@@H]3O[C@H]1C[C@H](N)[C@H](O)[C@H](C)O1 [DOX, doxorubicin]
diffusion across the dialysis membrane [1]: rapidly diffused across the dialysis membrane | cellular uptake (KB cells [2]; 30 min, DOX 6 μg/mL): efficiently taken up | effect of free folate on cellular uptake (KB cells [2]; excess free folate 100 μM): no effect | cytotoxicity (inhibition of cell proliferation) (KB cells [3]): inhibited the cell proliferation in a dose-dependent manner | DOX fluorescence signals in tumor tissues (4T1.2 tumor [4]): low level and scattered DOX fluorescence signals | antitumor activity (tumor growth) (4T1.2 tumor [5]): modest antitumor activity | body weights ([6]; mouse, in vivo): slight decrease in body weights on day 9 | liver histology ([6]; mouse, in vivo): hepatocellular vacuolation was found | serum levels of AST / ALT ([6]; versus control group): significantly higher than those in the control group

Nc1ccc(O)c(C(=O)O)c1 [5-ASA, 5-aminosalicylic acid]
inhibition at 1000 µM (PGE2): 80% | anti-proliferation effect / cytotoxicity [7]: did not show any significant anti-proliferation effect; also recorded: minimal cytotoxicity | level of PGE2 in CT26 tumor tissue [8]: minimal effect

CCc1cccc2c3c([nH]c12)C(CC)(CC(=O)O)OCC3 (centres unmarked) [Etodolac]
inhibition of cancer cells (endometrial cancer cells): dose dependent inhibition of endometrial cancer cells

Cc1ccc(-c2cc(C(F)(F)F)nn2-c2ccc(S(N)(=O)=O)cc2)cc1 [Celecoxib]
effect on 5-FU antitumor effects [9]: enhances 5-Fluorouracil (5-FU) antitumor effects

From patent US12678448B2, “Polymeric carriers for delivery of therapeutic agents” (priority 2020, dated 2026)
